Measurements: patent US11667632B2, “2-(1H-indazol-3-yl)-3H-imidazo[4,5-C]pyridines and their anti-inflammatory uses thereof” (BioSplice Therapeutics, Inc., priority 2015, dated 2023)

Tested on: IL-6
Test: Inhibition of IL-6 in LPS-stimulated human monocyte cells (THP-1), HTRF
Format: cell-based
Conditions: THP-1 cells; for EC50: Homo sapiens, LPS 500 ng/mL, IL-6 by HTRF; for percent inhibition of IL-6 at 10 μM: LPS-stimulated, dose-response starting from 10 μM
Protocol: Human Monocyte Cell Culture: A human monocyte cell line (THP-1 cells; Catalog #TIB-202, ATCC, Manassas, Va.) was cultured in Roswell Park Memorial Institute (RPMI) 1640 Medium (Catalog #21870-100, Buffalo, N.Y.) with 1% L-glutamine, 1% HEPES, 1% sodium pyruvate, 2% sodium bicarbonate supplemented with 100 units/mL penicillin, 50 μg/mL streptomycin, 2-mercaptoethanol (0.05 mM) [basal medium] and 10% fetal bovine serum (Catalog #16140089, Life Technologies, Carlsbad, Calif.) at 37° C. and 5% CO2.
Compound Screening: THP-1 cells were cultured in basal media with 1% FBS for 24 hours before the start of the assay. Each compound of Formula (I) was dissolved in DMSO as a 10 mM stock and used to prepare compound source plates. Serial dilution (1:3, 10-point dose-response curves starting from 10 μM) and compound transfer was performed using the ECHO 550 (Labcyte, Sunnyvale, Calif.) into 384-well white low volume assay plates (Greiner Bio-One) with appropriate DMSO backfill for a final DMSO concentration of 0.1%. THP-1 cells were plated at 5000 cells/well in the 384-well plates and incubated at 37° C. for 2 h. 500 ng/mL of LPS was added after 2 hours and cells were incubated for another 22 hours at 37° C. Plates were spun in a centrifuge for 1 minute at 10,000 rpm and a mixture of anti-IL-6 XL665, and anti-IL-6 Cryptate diluted in reconstitution buffer (Cisbio Inc.) was added to each well. Following incubation for 3 hrs at room temperature, homogeneous time-resolved fluorescence (HTRF) was measured using the Envision (Perkin Elmer) at 665 nm and […]. The ratio of fluorescence at 665 nm to 620 nm was used as a readout for IL-6 quantification. All samples were processed in duplicate. Readings were normalized to DMSO treated cells and normalized activities were utilized for EC50 calculations using the dose-response log (inhibitor) vs. response -variable slope (four parameters) nonlinear regression feature available in GraphPad Prism 5.0 (or Dotmatics). For EC50 of >10 μM, the percent inhibition at 10 μM is provided.

| Compound | EC50 | percent inhibition of IL-6 at 10 μM |
| --- | --- | --- |
| CC(C)CC(=O)Nc1cncc(-c2ccc3[nH]nc(-c4nc5c(N6CCN(C)CC6)cncc5[nH]4)c3c2)c1 [Compound 1] | 0.451 µM |  |
| CC(C)C(=O)Nc1cncc(-c2ccc3[nH]nc(-c4nc5c(N6CCN(C)CC6)cncc5[nH]4)c3c2)c1 [Compound 2] | 0.29 µM |  |
| CN(C)Cc1cncc(-c2ccc3[nH]nc(-c4nc5c(N6CCN(C)CC6)cncc5[nH]4)c3c2)c1 [Compound 3] | 0.273 µM |  |
| CN1CCN(c2cncc3[nH]c(-c4n[nH]c5ccc(-c6cncc(N7CCOCC7)c6)cc45)nc23)CC1 [Compound 5] | 0.349 µM |  |
| c1cncc(-c2ccc3[nH]nc(-c4nc5c(N6CCOCC6)cncc5[nH]4)c3c2)c1 [Compound 6] | 0.232 µM |  |
| CN1CCN(c2cncc(-c3ccc4[nH]nc(-c5nc6ccncc6[nH]5)c4c3)c2)CC1 [Compound 7] | 2.43 µM |  |
| CC(C)C(=O)Nc1cncc(-c2ccc3[nH]nc(-c4nc5ccncc5[nH]4)c3c2)c1 [Compound 9] | 2.26 µM |  |
| CC(C)CC(=O)Nc1cncc(-c2ccc3[nH]nc(-c4nc5c(-c6ccccc6F)cncc5[nH]4)c3c2)c1 [Compound 11] | 0.033 µM |  |
| CC(C)CC(=O)Nc1cncc(-c2ccc3[nH]nc(-c4nc5c(-c6ccc(F)cc6)cncc5[nH]4)c3c2)c1 [Compound 12] | 0.045 µM |  |
| Fc1cccc(-c2cncc3[nH]c(-c4n[nH]c5ccc(-c6cccnc6)cc45)nc23)c1 [Compound 15] | 0.023 µM |  |
| CN(C)Cc1cncc(-c2ccc3[nH]nc(-c4nc5c(-c6cncc(F)c6)cncc5[nH]4)c3c2)c1 [Compound 16] | 0.134 µM |  |
| CCC(=O)Nc1cncc(-c2ccc3[nH]nc(-c4nc5c(-c6cncc(F)c6)cncc5[nH]4)c3c2)c1 [Compound 20] | 0.015 µM |  |
| CCC(=O)Nc1cncc(-c2ccc3[nH]nc(-c4nc5c(-c6cccc(F)c6)cncc5[nH]4)c3c2)c1 [Compound 24] | 0.019 µM |  |
| CC(C)C(=O)Nc1cncc(-c2ccc3[nH]nc(-c4nc5c(-c6ccccc6F)cncc5[nH]4)c3c2)c1 [Compound 31] | 0.014 µM |  |
| O=C(Cc1ccccc1)Nc1cncc(-c2ccc3[nH]nc(-c4nc5c(-c6cccc(F)c6)cncc5[nH]4)c3c2)c1 [Compound 86] | 0.042 µM |  |
| CN(C)Cc1cncc(-c2ccc3[nH]nc(-c4nc5c(-c6cccc(F)c6)cncc5[nH]4)c3c2)c1 [Compound 89] | 0.044 µM |  |
| CC(C)(C)CC(=O)Nc1cncc(-c2ccc3[nH]nc(-c4nc5c(-c6cccc(F)c6)cncc5[nH]4)c3c2)c1 [Compound 90] | 0.042 µM |  |
| O=C(Nc1cncc(-c2ccc3[nH]nc(-c4nc5c(-c6cccc(F)c6)cncc5[nH]4)c3c2)c1)C1CC1 [Compound 91] | 0.019 µM |  |
| O=C(Nc1cncc(-c2ccc3[nH]nc(-c4nc5c(-c6cccc(F)c6)cncc5[nH]4)c3c2)c1)C1CCCCC1 [Compound 94] | 0.019 µM |  |
| Nc1cncc(-c2ccc3[nH]nc(-c4nc5c(-c6ccc(F)cc6)cncc5[nH]4)c3c2)c1 [Compound 97] | 0.122 µM |  |
| Cc1ccncc1-c1ccc2[nH]nc(-c3nc4c(-c5ccc(F)cc5)cncc4[nH]3)c2c1 [Compound 99] | 0.04 µM |  |
| CC(C)(C)C(=O)Nc1cncc(-c2ccc3[nH]nc(-c4nc5c(-c6ccc(F)cc6)cncc5[nH]4)c3c2)c1 [Compound 102] | 0.053 µM |  |
| O=C(Nc1cncc(-c2ccc3[nH]nc(-c4nc5c(-c6ccc(F)cc6)cncc5[nH]4)c3c2)c1)c1ccccc1 [Compound 104] | 7.24 µM |  |
| Fc1ccc(-c2cncc3[nH]c(-c4n[nH]c5ccc(-c6cncc(CN7CCCC7)c6)cc45)nc23)cc1 [Compound 107] | 0.075 µM |  |
| O=C(Nc1cncc(-c2ccc3[nH]nc(-c4nc5c(-c6ccc(F)cc6)cncc5[nH]4)c3c2)c1)C1CCC1 [Compound 111] | 0.05 µM |  |

| Compound | EC50 | percent inhibition of IL-6 at 10 μM |
| --- | --- | --- |
| CC(C)Nc1cncc(-c2ccc3[nH]nc(-c4nc5c(-c6ccccc6F)cncc5[nH]4)c3c2)c1 [Compound 124] | 0.047 µM |  |
| Fc1ccccc1-c1cncc2[nH]c(-c3n[nH]c4ccc(-c5cncc(CN6CCCCC6)c5)cc34)nc12 [Compound 127] | 0.138 µM |  |
| c1cncc(-c2ccc3[nH]nc(-c4nc5c(-c6cccnc6)cncc5[nH]4)c3c2)c1 [Compound 136] | 0.125 µM |  |
| Cc1ccncc1-c1ccc2[nH]nc(-c3nc4c(-c5ccncc5)cncc4[nH]3)c2c1 [Compound 154] | 0.188 µM |  |
| c1cc(-c2cncc3[nH]c(-c4n[nH]c5ccc(-c6cncc(CN7CCCC7)c6)cc45)nc23)ccn1 [Compound 163] | > 10 µM | (30.0%) |
| c1cc(-c2cncc3[nH]c(-c4n[nH]c5ccc(-c6cncc(CN7CCCCC7)c6)cc45)nc23)ccn1 [Compound 164] | 0.433 µM |  |
| O=C(Nc1cncc(-c2ccc3[nH]nc(-c4nc5c(-c6ccncc6)cncc5[nH]4)c3c2)c1)C1CCCC1 [Compound 170] | 4.69 µM |  |
| c1cc(-c2cncc3[nH]c(-c4n[nH]c5ccc(-c6cncc(CNCC7CCCC7)c6)cc45)nc23)ccn1 [Compound 173] | > 10 µM | (11.7%) |
| CCC(=O)Nc1cncc(-c2ccc3[nH]nc(-c4nc5c(-c6ccccn6)cncc5[nH]4)c3c2)c1 [Compound 174] | 0.016 µM |  |
| c1ccc(-c2cncc3[nH]c(-c4n[nH]c5ccc(-c6cccnc6)cc45)nc23)nc1 [Compound 177] | 0.03 µM |  |
| CN(C)Cc1cncc(-c2ccc3[nH]nc(-c4nc5c(-c6ccccn6)cncc5[nH]4)c3c2)c1 [Compound 186] | 1.18 µM |  |
| CC(C)CC(=O)Nc1cncc(-c2ccc3[nH]nc(-c4nc5c(N6CCCCC6)cncc5[nH]4)c3c2)c1 [Compound 199] | 0.103 µM |  |
| Cc1ccncc1-c1ccc2[nH]nc(-c3nc4c(N5CCCCC5)cncc4[nH]3)c2c1 [Compound 202] | 1.22 µM |  |
| CC(C)(C)C(=O)Nc1cncc(-c2ccc3[nH]nc(-c4nc5c(N6CCCCC6)cncc5[nH]4)c3c2)c1 [Compound 205] | 0.016 µM |  |
| c1ncc(-c2ccc3[nH]nc(-c4nc5c(N6CCCCC6)cncc5[nH]4)c3c2)cc1CN1CCCC1 [Compound 211] | 0.311 µM |  |
| CCCC(=O)Nc1cncc(-c2ccc3[nH]nc(-c4nc5c(N6CCCCC6)cncc5[nH]4)c3c2)c1 [Compound 214] | 0.059 µM |  |
| O=C(Nc1cncc(-c2ccc3[nH]nc(-c4nc5c(N6CCCCC6)cncc5[nH]4)c3c2)c1)C1CCC1 [Compound 217] | 0.014 µM |  |
| CN1CCN(c2cncc3[nH]c(-c4n[nH]c5ccc(-c6cncc(N)c6)cc45)nc23)CC1 [Compound 247] | 0.474 µM |  |
| CN1CCN(c2cncc3[nH]c(-c4n[nH]c5ccc(-c6cncc(NC(=O)Cc7ccccc7)c6)cc45)nc23)CC1 [Compound 252] | 0.75 µM |  |
| CN1CCN(c2cncc3[nH]c(-c4n[nH]c5ccc(-c6cncc(NC(=O)CC(C)(C)C)c6)cc45)nc23)CC1 [Compound 257] | 0.097 µM |  |
| CN1CCN(c2cncc3[nH]c(-c4n[nH]c5ccc(-c6cncc(NC(=O)C7CC7)c6)cc45)nc23)CC1 [Compound 260] | 0.295 µM |  |
| CN1CCN(c2cncc3[nH]c(-c4n[nH]c5ccc(-c6cncc(NC(=O)C7CCCCC7)c6)cc45)nc23)CC1 [Compound 263] | 0.224 µM |  |
| Nc1cncc(-c2ccc3[nH]nc(-c4nc5ccncc5[nH]4)c3c2)c1 [Compound 268] | > 10 µM | (27.6%) |
| O=C(Cc1ccccc1)Nc1cncc(-c2ccc3[nH]nc(-c4nc5ccncc5[nH]4)c3c2)c1 [Compound 274] | > 10 µM | (24.1%) |
